# According to patent publication EP1619195A2, “Compounds isolated from gamboge resin having activity in inhibiting the growth of tumor/cancer cells and pharmaceutical compositions comprising the same” (priority 2004, dated 2006):
# Several values for one entry are separate records, joined by “and”; a condition that tells them apart may be missing. Equal entries are not always repeated. Marks after values point to notes of the source that are not given here.
# Key:
# HUVEC = assay: in vitro; details: for LC50: 50% cell destroying lethal concentration
# Description: (§1) The cancer cell growth inhibition test was primarily used to detect the effect of a candidate drug on cancer cell proliferation. The working principle involved therein is the abilityof viable cells to shift alamarBlue (Biosource, USA) from its originally non-fluorescent oxidized state to a reduced form (fluorescent, red) having fluorescence via metabolic reaction. According to the fluorescent data result generated by the alamarBlue reagent thus obtained, the proliferation of the viable cells and cell activity can be quantified for detection.
# (§2) In this experiment, the assay concentrations of the candidate drug were set to be 0.01, 0.1, 1, 10, and 100 µg/ml, and the following cell lines were used: 6 human cancer cells MCF-7 (breast cancer), HT-29 (colon cancer), HL-60 (leukemia), HepG2 (liver cancer), A549 (lung cancer), and U937 (lymphoma cancer), and a normal human umbilicalvenalepithelialcell (HUVEC).
# HepG2 (liver cancer) = assay: cells; details: for LC50: 50% cell destroying lethal concentration
# Description: as §1, §2
# MCF-7 (breast cancer) = assay: cells; details: for LC50: 50% cell destroying lethal concentration
# Description: as §1, §2
# HL-60 (leukemia) = assay: cells; details: for LC50: 50% cell destroying lethal concentration
# Description: as §1, §2
# U937 (lymphoma cancer) = assay: cells; details: for LC50: 50% cell destroying lethal concentration
# Description: as §1, §2
# HT-29 (colon cancer) = assay: cells; details: for LC50: 50% cell destroying lethal concentration
# Description: as §1, §2
# A549 (lung cancer) = assay: cells; details: for LC50: 50% cell destroying lethal concentration
# Description: as §1, §2
# [1] = system: Human breast cancer cells MCF-7 (ATCC HTB-22); assay: In vivo tumor growth inhibition, MCF-7 xenograft in SCID mice; details: 2 mg/kg x 5, intraperitoneal, 4-day interval
# Experimental: Mixture formulation TSB-9 was further subjected to an animal test, in which female mice (6-8 weeks old, weighing 20-22 grams) originally from C.B-17/Icr background and having Severe Combined Immune Deficiency (SCID) were used.
# Human breast cancer cells MCF-7 (ATCC HTB-22) (1x10^7 cells/0.2 ml) were implanted subcutaneously into the dorsal side of the mice, and 50 µg/mouse of estradiol benzoate (Sigma, USA) was injected subcutaneously into the mice weekly as supplement for a total of 4 weeks. When the tumor growth reached ≥5 mm in diameter (that very day was denoted as day 1), tumor-bearing […] mice were randomly divided into 4 groups (6 mice in each group).
# Mixture formulation TSB-9 was dissolved in 10%DMSO, and was administered orally to the mice every day at two dosages 40 mg/kg and 80 mg/kg, respectively, for a total of 21 consecutive days. […] This treatment group served as a positive control.
# Measurements were taken once every 4 days during the experiment periods, and were recorded.
# in vitro = details: human
# Description: as §1, §2
# [2] = HepG2, 50% cell growth inhibition concentration
# [3] = MCF-7, 50% cell growth inhibition concentration
# [4] = HT-29, 50% cell growth inhibition concentration
# [5] = Homo sapiens, HUVEC, HUVEC (normal human cell), 50% cell growth inhibition concentration
# [6] = Homo sapiens, HepG2, HepG2, 50% cell growth inhibition concentration
# [7] = Homo sapiens, MCF7, MCF-7, 50% cell growth inhibition concentration
# [8] = Homo sapiens, HL-60, HL-60, 50% cell growth inhibition concentration
# [9] = Homo sapiens, HT-29, HT-29, 50% cell growth inhibition concentration
# [10] = Homo sapiens, A549, A549, 50% cell growth inhibition concentration
# [11] = Homo sapiens, U-937, U937, 50% cell growth inhibition concentration
structure (smiles),measurement,setting,value
"CC(C)=CCc1c2c(c(O)c3c1OC14C(=CC5CC1C(C)(C)OC4(CC=C(C)C(=O)O)C5=O)C3=O)C=CC(C)(C)O2 (centres unmarked) [TSB-7, morellic acid]",LC50,HUVEC; HUVEC (normal human cell),4.8 µg/mL
same,IC50,"HUVEC; HUVEC (normal human cell), 50% cell growth inhibition concentration",0.88 µg/mL
same,LC50,HepG2 (liver cancer); HepG2,3.9 µg/mL
same,IC50,HepG2 (liver cancer); [2],1.7 µg/mL
same,LC50,MCF-7 (breast cancer); MCF-7,6.2 µg/mL
same,IC50,MCF-7 (breast cancer); [3],0.98 µg/mL
same,LC50,HL-60 (leukemia); HL-60,5.6 µg/mL
same,IC50,"HL-60 (leukemia); HL-60, 50% cell growth inhibition concentration",1.2 µg/mL
same,LC50,U937 (lymphoma cancer); U937,4.8 µg/mL
same,IC50,"U937 (lymphoma cancer); U937, 50% cell growth inhibition concentration",1.6 µg/mL
same,LC50,HT-29 (colon cancer); HT-29,7.2 µg/mL
same,IC50,HT-29 (colon cancer); [4],2.8 µg/mL
same,LC50,A549 (lung cancer); A549,3.4 µg/mL
same,IC50,"A549 (lung cancer); A549, 50% cell growth inhibition concentration",0.76 µg/mL
"CC(C)=CCCC1(C)C=Cc2c(O)c3c(c(CC=C(C)C)c2O1)OC12C(=CC4CC1C(C)(C)OC2(CC=C(C)C(=O)O)C4=O)C3=O (centres unmarked) [TSB-3, isogambogic acid]",LC50,HUVEC; HUVEC (normal human cell),5.2 µg/mL
same,IC50,HUVEC; [5],1.1 µg/mL
same,LC50,HepG2 (liver cancer); HepG2,1.9 µg/mL
same,IC50,HepG2 (liver cancer); [6],1.2 µg/mL
same,IC50,MCF-7 (breast cancer); [7],1.6 µg/mL
same,LC50,MCF-7 (breast cancer); MCF-7,4.3 µg/mL
same,LC50,HL-60 (leukemia); HL-60,4.6 µg/mL
same,IC50,HL-60 (leukemia); [8],0.97 µg/mL
same,IC50,"U937 (lymphoma cancer); Homo sapiens, U-937",0.82 µg/mL
same,LC50,U937 (lymphoma cancer); U937,3.1 µg/mL
same,LC50,HT-29 (colon cancer); HT-29,8.8 µg/mL
same,IC50,HT-29 (colon cancer); [9],6.4 µg/mL
same,LC50,A549 (lung cancer); A549,4.8 µg/mL
same,IC50,A549 (lung cancer); [10],0.88 µg/mL
"CO[C@@]12[C@H](COC(N)=O)C3=C(C(=O)C(C)=C(N)C3=O)N1C[C@@H]1N[C@@H]12 [mitomycin, reference compound]",IC50,"HUVEC; HUVEC (normal human cell), positive control",240 nM
same,IC50,"HUVEC; HUVEC (normal human cell), positive control, listed as Mitomycin",170 nM
same,Tumor growth (%T/C),[1]; Day 1,98%
same,Tumor growth (%T/C),[1]; Day 5,31* %
same,Tumor growth (%T/C),[1]; Day 9,1* %
same,Tumor growth (%T/C),[1]; Day 13,-6* %
same,Tumor growth (%T/C),[1]; Day 17,-23* %
same,Tumor growth (%T/C),[1]; Day 21,-36* %
same,Tumor growth (%T/C),[1]; Day 25,-56* %
same,Tumor growth (%T/C),[1]; Day 29,-70* %
same,IC50,"HepG2 (liver cancer); HepG2, positive control",26 nM
same,IC50,"HepG2 (liver cancer); HepG2, positive control, listed as Mitomycin",62 nM and 36 nM
same,IC50,"MCF-7 (breast cancer); MCF-7, positive control",69 nM and 34 nM
same,IC50,"HL-60 (leukemia); HL-60, positive control",47 nM and 27 nM
same,IC50,"HL-60 (leukemia); Homo sapiens, HL-60, HL-60, positive control",39 nM
same,IC50,"U937 (lymphoma cancer); Homo sapiens, U-937, U937, positive control",69 nM
same,IC50,"U937 (lymphoma cancer); U937, positive control",35 nM and 56 nM
same,IC50,"HT-29 (colon cancer); HT-29, positive control",120 nM and 89 nM
same,IC50,"HT-29 (colon cancer); Homo sapiens, HT-29, HT-29, positive control",90 nM
same,IC50,"A549 (lung cancer); A549, positive control",62 nM and 61 nM
same,IC50,"A549 (lung cancer); Homo sapiens, A549, A549, positive control",68 nM
"CC(C)=CCc1c(O)cc(O)c2c(=O)c3cc4c(c(O)c3oc12)OC(C)(C)C=C4 [TSB-4, 7,9,12-trihydroxy-2,2-dimethyl-10-(3-methyl-but-2-enyl)-2H-pyrano[3,2-b]xanthen-6-one]",IC50,HUVEC; [5],11 µg/mL
same,CC50,in vitro,21 µg/mL
same,IC50,HepG2 (liver cancer); [6],8.9 µg/mL
same,IC50,MCF-7 (breast cancer); [7],10 µg/mL
same,IC50,HL-60 (leukemia); [8],7.7 µg/mL
same,IC50,U937 (lymphoma cancer); [11],6.9 µg/mL
same,IC50,HT-29 (colon cancer); [9],8.4 µg/mL
same,IC50,A549 (lung cancer); [10],1.8 µg/mL
"CC(C)=CCc1c2c(c(O)c3c1OC14C(=CC5CC1C(C)(C)OC4(CC=C(C)C)C5=O)C3=O)C=CC(C)(C)O2 (centres unmarked) [TSB-8, desoxymorellin]",LC50,HUVEC; HUVEC (normal human cell),40 µg/mL
same,IC50,HUVEC; [5],2.8 µg/mL
same,LC50,HepG2 (liver cancer); HepG2,31 µg/mL
same,IC50,HepG2 (liver cancer); [6],3.9 µg/mL
same,IC50,MCF-7 (breast cancer); [7],5.3 µg/mL
same,LC50,MCF-7 (breast cancer); MCF-7,83 µg/mL
same,LC50,HL-60 (leukemia); HL-60,> 100 µg/mL
same,IC50,HL-60 (leukemia); [8],6.5 µg/mL
same,IC50,"U937 (lymphoma cancer); Homo sapiens, U-937",6.2 µg/mL
same,LC50,U937 (lymphoma cancer); U937,> 100 µg/mL
same,LC50,HT-29 (colon cancer); HT-29,69 µg/mL
same,IC50,HT-29 (colon cancer); [9],6.7 µg/mL
same,LC50,A549 (lung cancer); A549,56 µg/mL
same,IC50,A549 (lung cancer); [10],4.8 µg/mL
"CC(C)=CCc1c2c(c(O)c3c1OC14C(=CC5CC1C(C)(C)OC4(CC=C(C)C(=O)O)C5=O)C3=O)C=CC(C)(C)O2 (centres unmarked) [TSB-2, isomorellic acid]",LC50,HUVEC; HUVEC (normal human cell),22 µg/mL
same,IC50,HUVEC; [5],1.7 µg/mL
same,LC50,HepG2 (liver cancer); HepG2,33 µg/mL
same,IC50,HepG2 (liver cancer); [2],6.4 µg/mL
same,LC50,MCF-7 (breast cancer); MCF-7,24 µg/mL
same,IC50,MCF-7 (breast cancer); [3],9.0 µg/mL
same,LC50,HL-60 (leukemia); HL-60,43 µg/mL
same,IC50,HL-60 (leukemia); [8],2.3 µg/mL
same,IC50,"U937 (lymphoma cancer); Homo sapiens, U-937",1.6 µg/mL
same,LC50,U937 (lymphoma cancer); U937,6.1 µg/mL
same,LC50,HT-29 (colon cancer); HT-29,12 µg/mL
same,IC50,HT-29 (colon cancer); [4],6.9 µg/mL
same,LC50,A549 (lung cancer); A549,4.6 µg/mL
same,IC50,A549 (lung cancer); [10],1.3 µg/mL
"CC(C)=CCC[C@]1(C)C=Cc2c(O)c3c(c(CC=C(C)C)c2O1)O[C@]12C(=C[C@@H]4C[C@H]1C(C)(C)O[C@@]2(C/C=C(/C)C(=O)O)C4=O)C3=O [TSB-5, gambogic acid]",IC50,HUVEC; [5],0.87 µg/mL
same,CC50,in vitro,3.6 µg/mL
same,IC50,HepG2 (liver cancer); [6],0.83 µg/mL
same,CC50,"HepG2 (liver cancer); Homo sapiens, HepG2, read-out: LC50",2.7 µg/mL
same,IC50,MCF-7 (breast cancer); [7],0.83 µg/mL
same,CC50,"MCF-7 (breast cancer); Homo sapiens, MCF7, read-out: LC50",2.7 µg/mL
same,IC50,HL-60 (leukemia); [8],0.5 µg/mL
same,CC50,"HL-60 (leukemia); Homo sapiens, HL-60, read-out: LC50",5.2 µg/mL
same,IC50,U937 (lymphoma cancer); [11],0.65 µg/mL
same,CC50,"U937 (lymphoma cancer); Homo sapiens, U-937, read-out: LC50",3.1 µg/mL
same,IC50,HT-29 (colon cancer); [9],4.5 µg/mL
same,CC50,"HT-29 (colon cancer); Homo sapiens, HT-29, read-out: LC50",7.1 µg/mL
same,IC50,A549 (lung cancer); [10],0.8 µg/mL
same,CC50,"A549 (lung cancer); Homo sapiens, A549, read-out: LC50",2.9 µg/mL
"CC(C)=CCc1c2c(c(O)c3c1OC14C(=CC5CC1C(C)(C)OC4(CC=C(C)CO)C5=O)C3=O)C=CC(C)(C)O2 (centres unmarked) [TSB-6, isomorellinol]",LC50,HUVEC; HUVEC (normal human cell),9.3 µg/mL
same,IC50,"HUVEC; Homo sapiens, HUVEC",1.5 µg/mL
same,LC50,HepG2 (liver cancer); HepG2,3.0 µg/mL
same,IC50,"HepG2 (liver cancer); Homo sapiens, HepG2",1.2 µg/mL
same,IC50,"MCF-7 (breast cancer); Homo sapiens, MCF7",0.9 µg/mL
same,LC50,MCF-7 (breast cancer); MCF-7,5.8 µg/mL
same,LC50,HL-60 (leukemia); HL-60,6.2 µg/mL
same,IC50,"HL-60 (leukemia); Homo sapiens, HL-60",1.4 µg/mL
same,IC50,"U937 (lymphoma cancer); Homo sapiens, U-937",1.3 µg/mL
same,LC50,U937 (lymphoma cancer); U937,3.8 µg/mL
same,LC50,HT-29 (colon cancer); HT-29,8.5 µg/mL
same,IC50,"HT-29 (colon cancer); Homo sapiens, HT-29",5.2 µg/mL
same,LC50,A549 (lung cancer); A549,9.6 µg/mL
same,IC50,"A549 (lung cancer); Homo sapiens, A549",2 µg/mL
